# Data taken from the supplement of paper PMC11061612.
# Key:
# Assay in all cases: combination Emax (second highest fraction inhibited in the dose matrix, 72 h); higher = more inhibition; extreme values may be limits of the assay
# [1] = test system: U251 (Low Grade Glioma)
# How it was run: (§1)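 Cell lines in DMEM/F12 or RPMI with 10% FBS were plated in 1536-well plates, held 24 hours at 37°C, 5% CO2, then given two-drug dose matrices for 72 hours (DMSO typically 0.2%). Viability was read by CellTiter-Glo 2.0 luminescence and scaled as inhibition from 0 (vehicle wells) to 1 (blank wells). Combination Emax is the second-highest inhibition in the matrix; Bliss excess is observed combination effect minus expected EA + EB − EA·EB, EA and EB being single-agent effects.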
# [2] = test system: SW1417 (Colorectal Carcinoma)
# How it was run: as §1
# [3] = test system: DiFi (Colorectal Carcinoma)
# How it was run: as §1
# [4] = test system: SW837 (Colorectal Carcinoma)
# How it was run: as §1
# [5] = test system: TOV-112D (Ovarian Carcinoma)
# How it was run: as §1
# [6] = test system: HL-60 (Acute Myeloid Leukemia)
# How it was run: as §1
# [7] = test system: MEL-JUSO (Melanoma)
# How it was run: as §1
# [8] = test system: KYSE-180 (Esophageal Squamous Cell Carcinoma)
# How it was run: as §1
# [9] = test system: MOLT-16 (T-Lymphoblastic Leukemia)
# How it was run: as §1
# [10] = test system: EVSA-T (Breast Carcinoma)
# How it was run: as §1
# [11] = test system: BL-41 (Burkitt's Lymphoma)
# How it was run: as §1
# [12] = test system: KM12 (Colorectal Carcinoma)
# How it was run: as §1
# [13] = test system: P12-ICHIKAWA (T-Lymphoblastic Leukemia)
# How it was run: as §1
# [14] = test system: WIL2-NS (Non-Cancerous)
# How it was run: as §1
# [15] = test system: LN-18 (Glioblastoma)
# How it was run: as §1
# [16] = test system: TE-6 (Esophageal Squamous Cell Carcinoma)
# How it was run: as §1
# [17] = test system: BFTC-905 (Bladder Carcinoma)
# How it was run: as §1
# [18] = test system: CAMA-1 (Breast Carcinoma)
# How it was run: as §1
# [19] = test system: ES8 (Ewing's Sarcoma)
# How it was run: as §1
# [20] = test system: COLO-678 (Colorectal Carcinoma)
# How it was run: as §1
Compound,combination Emax [1],combination Emax [2],combination Emax [3],combination Emax [4],combination Emax [5],combination Emax [6],combination Emax [7],combination Emax [8],combination Emax [9],combination Emax [10],combination Emax [11],combination Emax [12],combination Emax [13],combination Emax [14],combination Emax [15],combination Emax [16],combination Emax [17],combination Emax [18],combination Emax [19],combination Emax [20]
"CN(C)CCCOc1ccc(-c2ccc3ncc4c(c3c2)n(C2CCOCC2)c(=O)n4C)cn1 [AZD0156] + O=C(c1cc(Cc2n[nH]c(=O)c3ccccc23)ccc1F)N1CCN(C(=O)C2CC2)CC1 [Olaparib] (first compound max 3 µM, partner max 3 µM)",0.294,0.135,0.223,0.185,0.552,0.489,0.115,0.233,0.914,0.234,0.366,0.36,0.611,0.6,0.203,0.417,0.544,0.285,0.877,0.216
"CN(CCO)CC[C@H](CSc1ccccc1)Nc1ccc(S(=O)(=O)NC(=O)c2ccc(N3CCC([C@@H](O)c4ccccc4-c4ccc(Cl)cc4)CC3)cc2)cc1S(=O)(=O)C(F)(F)F [AZD4320] + C[C@@H]1COCCN1C2=NC(=NC(=C2)C3(CC3)[S@](=N)(=O)C)C4=C5C=CNC5=NC=C4 [AZD6738] (first compound max 1 µM, 7x7, partner max 10 µM)",0.534,–,0.954,0.585,0.729,0.95,0.642,0.747,1,0.213,1,0.764,1,0.985,0.847,0.792,0.926,0.658,1,0.11
"Cc1cc2ncnn2cc1Nc1ncc2c(n1)n(C1CCOCC1)c(=O)n2C [AZD7648] + O=C(c1cc(Cc2n[nH]c(=O)c3ccccc23)ccc1F)N1CCN(C(=O)C2CC2)CC1 [Olaparib] (first compound max 10 µM, 7x7, partner max 10 µM)",0.185,0.165,0.258,0.0487,0.353,0.228,0.104,0.0923,0.633,0.253,0.14,0.21,–,0.461,0.132,0.328,0.178,0.109,0.814,0.132
"COc1cccc2c1C(=O)c1c(O)c3c(c(O)c1C2=O)C[C@@](O)(C(=O)CO)C[C@@H]3O[C@H]1C[C@H](N)[C@H](O)[C@H](C)O1 [Doxorubicin] + Cc1cc2ncnn2cc1Nc1ncc2c(n1)n(C1CCOCC1)c(=O)n2C [AZD7648] (first compound max 1 µM, 7x7, partner max 10 µM)",0.859,0.432,0.701,0.516,0.926,0.994,0.328,0.858,1,0.787,1,0.936,–,1,0.33,0.322,0.974,0.469,0.935,0.715
"CC(=O)c1c(C)c2cnc(Nc3ccc(N4CCNCC4)cn3)nc2n(C2CCCC2)c1=O [Palbociclib] + CN(CC[C@H](CSC1=CC=CC=C1)NC2=C(C=C(C=C2)S(=O)(=O)NC(=O)C3=CC=C(C=C3)N4CCC(CC4)[C@H](C5=CC=CC=C5C6=CC=C(C=C6)Cl)O)S(=O)(=O)C(F)(F)F)CCO [AZD4320] (first compound max 10 µM, 7x7, partner max 1 µM)",0.294,–,0.812,–,0.584,0.956,0.356,0.462,1,0.444,–,0.768,1,–,0.517,0.363,–,–,–,0.354
"COc1cccc(OCCCN)c1-c1cc(Nc2cnc(C#N)cn2)n[nH]1 [Prexasertib] + C=CCn1c(=O)c2cnc(Nc3ccc(N4CCN(C)CC4)cc3)nc2n1-c1cccc(C(C)(C)O)n1 [AZD1775] (first compound max 1 µM, partner max 1 µM)",0.783,0.64,0.92,0.79,0.815,0.97,0.747,0.983,1,0.532,1,0.862,–,1,0.807,0.767,0.96,0.545,0.945,0.307
"COc1cccc(OCCCN)c1-c1cc(Nc2cnc(C#N)cn2)n[nH]1 [Prexasertib] + CN(C)CCCOc1ccc(-c2ccc3ncc4c(c3c2)n(C2CCOCC2)c(=O)n4C)cn1 [AZD0156] (first compound max 1 µM, 7x7, partner max 1 µM)",0.613,0.619,0.878,0.803,0.614,0.956,0.751,0.983,1,0.252,1,0.775,–,1,0.752,0.567,0.888,0.327,0.837,0.0457
"COc1cccc(OCCCN)c1-c1cc(Nc2cnc(C#N)cn2)n[nH]1 [Prexasertib] + C[C@@H]1COCCN1C2=NC(=NC(=C2)C3(CC3)[S@](=N)(=O)C)C4=C5C=CNC5=NC=C4 [AZD6738] (first compound max 1 µM, 7x7, partner max 10 µM)",0.652,0.629,0.881,0.752,0.796,0.971,0.695,0.989,1,0.343,1,0.767,–,1,0.797,0.695,0.917,0.417,0.798,0.136
"COc1cccc(OCCCN)c1-c1cc(Nc2cnc(C#N)cn2)n[nH]1 [Prexasertib] + Cc1cc2ncnn2cc1Nc1ncc2c(n1)n(C1CCOCC1)c(=O)n2C [AZD7648] (first compound max 1 µM, 7x7, partner max 10 µM)",0.622,0.667,0.864,0.749,0.711,0.961,0.712,0.974,1,0.358,1,0.796,–,1,0.75,0.554,0.856,0.384,0.842,0.0565
"COc1cccc(OCCCN)c1-c1cc(Nc2cnc(C#N)cn2)n[nH]1 [Prexasertib] + O=C(c1cc(Cc2n[nH]c(=O)c3ccccc23)ccc1F)N1CCN(C(=O)C2CC2)CC1 [Olaparib] (first compound max 1 µM, 7x7, partner max 10 µM)",0.733,0.614,0.924,0.645,0.796,0.961,0.686,0.983,1,0.433,1,0.756,–,1,0.807,0.476,0.848,0.37,0.906,0.169
"COc1cc2c(cc1OCCCCCOc1cc3c(cc1OC)C(=O)N1C=C(C)C[C@H]1C=N3)N=C[C@@H]1CC(C)=CN1C2=O [SG3199] + O=C(c1cc(Cc2n[nH]c(=O)c3ccccc23)ccc1F)N1CCN(C(=O)C2CC2)CC1 [Olaparib] (first compound max 0.001 µM, 7x7, partner max 10 µM)",0.183,0.0642,0.107,0.0782,0.269,0.133,0.0923,0.0586,0.659,0.276,0.107,0.113,–,0.247,0.132,0.117,0.152,0.109,0.828,0.13
"CCc1c2c(nc3ccc(O)cc13)-c1cc3c(c(=O)n1C2)COC(=O)[C@]3(O)CC [SN-38] + CN(C)CCCOc1ccc(-c2ccc3ncc4c(c3c2)n(C2CCOCC2)c(=O)n4C)cn1 [AZD0156] (first compound max 0.3 µM, 7x7, partner max 1 µM)",0.897,0.662,0.669,0.343,0.965,0.968,0.263,0.411,1,0.421,1,0.716,–,1,0.617,0.313,0.957,0.208,0.984,0.268
"C[C@@H](c1ccc2nccn2c1)n1nnc2ncc(-c3cnn(C)c3)nc21 [Savolitinib] + CN(CC[C@H](CSC1=CC=CC=C1)NC2=C(C=C(C=C2)S(=O)(=O)NC(=O)C3=CC=C(C=C3)N4CCC(CC4)[C@H](C5=CC=CC=C5C6=CC=C(C=C6)Cl)O)S(=O)(=O)C(F)(F)F)CCO [AZD4320] (first compound max 1 µM, 7x7, partner max 1 µM)",0.176,–,0.495,–,0.0682,0.856,0.257,0.13,1,0.248,–,0.139,1,–,0.163,0.427,–,–,–,0.226
